These are literature values, as cited in patent US20140107130A1, “Oral Solution Formulations of Aripiprazole” (Antrim Pharmaceuticals, LLC, priority 2012, published 2014).

For data set [1] the following is noted: room temperature.
For data set [2] the following is noted: intramuscular (IM) injectable solution; many water-miscible co-solvent and water-immiscible solvent/co-solvent systems.

Take `O=C1CCc2ccc(OCCCCN3CCN(c4cccc(Cl)c4Cl)CC3)cc2N1` [Aripiprazole]: the aqueous solubility in data set [1] was less than 1 µg/mL. For the same molecule, in data set [2], the “tissue irritation at the muscular site” value is “unacceptable (moderate to severe) tissue irritation”.

By aqueous solubility is commonly meant how much of the substance goes into solution per volume.
